Test results taken from US8466098B2, “Washing agent having stabilized enzymes” (Henkel AG & Co. KGaA, priority 2007, dated 2013).

Target: T1, Bacillus lentus alkaline protease F49 (Lederbergia lenta, UniProt P29599, A188P/L211D/S3T/V193M/V199I)
T1 sequence (P29599 with tags, fused parts or gaps A188P/V193M/V199I/L211D limits assumed): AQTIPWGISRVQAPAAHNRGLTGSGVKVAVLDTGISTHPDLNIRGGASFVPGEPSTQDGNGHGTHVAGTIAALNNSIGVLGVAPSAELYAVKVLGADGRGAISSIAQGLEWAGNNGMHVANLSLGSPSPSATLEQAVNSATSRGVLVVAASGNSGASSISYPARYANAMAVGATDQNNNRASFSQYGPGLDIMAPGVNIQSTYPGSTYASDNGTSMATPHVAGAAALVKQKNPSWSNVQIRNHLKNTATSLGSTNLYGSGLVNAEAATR
Experiment: Residual protease activity in the presence of an inhibitor (AAPFpNA substrate)
Assay type: biochemical
Conditions: compound 10 mM final concentration; incubation 5 min at pH 8.6 and 25° C.; batch without compound set at 100%
Protocol: In parallel reaction batches, the succinyl-alanine-alanine-proline-phenylalanine-para-nitroanilide substrate (AAPFpNA; Bachem L-1400) and 5×10^−9 or 1×10^−8 M of the protease were prepared in 100 mM BrijTM35 Tris buffer, […], 0.1% (w/v). The compounds to be tested (listed below) were added at a final concentration of 10 mM. They were each dissolved in anhydrous DMSO, the effects of DMSO on enzymatic activity having been corrected via the corresponding reference having the same quantity of DMSO but without the relevant compound. Incubation occurred for 5 min at pH 8.6 and 25° C. The corresponding reaction mixture with protease, but without the relevant compound, served as a comparison. The protease activity in these comparison batches was set at 100%.

SMILES	residual protease activity
CCCCOP(=O)(O)OCCCC [V1, dibutyl phosphate]	45%
O=P(O)(OCc1ccccc1)OCc1ccccc1 [V2, dibenzyl phosphate]	56%
